Reference: PubChem BioAssay AID652053 (Broad Institute, 2013)

What follows are compounds tested on Huh7 psiCHECK-miR122 Renilla luciferase reporter, 48 h (assay: suppression of miR-122 activity, Renilla luciferase sensor – cell-based, Huh7 psiCHECK-miR122, cherry-pick, dose response (AID 652053)).

For CCN(CC)C(=S)Nc1ccc(Cl)c(Cl)c1, which AC40 is on record?
Its AC40 is 16 µM.

Which AC40 does the source give for S=C(Nc1ccccc1Cl)NC1CCCCCC1 here?
Its AC40 is 17.2 µM.

Which AC40 does the source give for CCOc1cc(C)c(S(=O)(=O)NCCCn2ccnc2)cc1C here?
The AC40 was 5.88 µM.

With CCc1ccc(NC(=O)Cc2cn(C)c3ccccc23)cc1 as the compound, how does the AC40 read?
Its AC40 is 28.8 µM.

For O=S(=O)(NCC1CCCO1)c1ccc(Cl)c(C(F)(F)F)c1 (configuration not stated), which AC40 is on record?
The AC40 was 7.84 µM.

Which AC40 does the source give for CCN(CC(=O)NCc1cccs1)C(=O)c1cccc(S(=O)(=O)Nc2cccc(C)c2)c1 here?
Its AC40 is 6.04 µM.

Which AC40 does the source give for C[C@@H]1CN([C@@H](C)CO)C(=O)c2cccc(NC(=O)C3CCCCC3)c2O[C@@H]1CN(C)Cc1ccc(C(=O)Nc2ccccc2N)cc1 here?
The AC40 was 6.92 µM.

Which AC40 does the source give for Cc1ccc(S(=O)(=O)n2nc(C)c(Br)c2C)c(C)c1C here?
The AC40 was 12 µM.

With O=S(=O)(Nc1ccc(C(O)(C(F)(F)F)C(F)(F)F)cc1)c1cccc2ccccc12 as the compound, how does the AC40 read?
The AC40 was 1.45 µM.

How did the AC40 turn out when Cc1ccc(S(=O)(=O)Nc2ccc3c(c2)CC(=O)N([C@@H](C)CO)C[C@@H](C)[C@H](CN(C)Cc2ccc(C(=O)Nc4ccccc4N)cc2)O3)cc1 was run?
Its AC40 is 32.4 µM.

With COc1ccc(OC)c(S(=O)(=O)Nc2cc3c4c(c2)CCN4C(=O)CC3)c1 as the compound, how does the AC40 read?
The AC40 was 2.85 µM.

For CCOC(=O)c1c(C)[nH]c(C)c1S(=O)(=O)NCCCc1ccco1, which AC40 is on record?
The AC40 was 5.96 µM.

How did the AC40 turn out when COc1ccc(NC(=O)Cc2cccc(F)c2)cc1S(=O)(=O)Nc1ccccc1Cl was run?
Its AC40 is 4.83 µM.

With Cc1ccc(-c2nnc(Nc3ccc4c(c3)OCO4)c3ccccc23)cc1S(N)(=O)=O as the compound, how does the AC40 read?
The AC40 was 5.9 µM.

With COc1ccc(C(C)(C)C)cc1NS(=O)(=O)c1cccc2cccnc12 as the compound, how does the AC40 read?
The AC40 was 2.14 µM.

With CC(=O)Nc1ccc(S(=O)(=O)Nc2ccc3c(c2)n(C)c(=O)n3C)c(C)c1 as the compound, how does the AC40 read?
The AC40 was 3.94 µM.

How did the AC40 turn out when Cc1ccccc1NS(=O)(=O)c1cc(C(=O)Nc2cccnc2)ccc1C was run?
The AC40 was 5.17 µM.

With C[C@@H]1CN([C@H](C)CO)C(=O)Cc2cc(N(C)C)ccc2O[C@@H]1CN(C)Cc1ccc(C(=O)Nc2ccccc2N)cc1 as the compound, how does the AC40 read?
The AC40 was 11.1 µM.

With Cc1cc(C)c(S(=O)(=O)Nc2ccc3c4c(cccc24)CC3)c(C)c1 as the compound, how does the AC40 read?
The AC40 was 7.76 µM.

With Cc1ccc(S(=O)(=O)c2cccc(S(=O)(=O)N3CCCC3)c2)cc1S(=O)(=O)N1CCCC1 as the compound, how does the AC40 read?
Its AC40 is 9.91 µM.

With COc1ccc(NS(=O)(=O)c2cc(NC(=O)c3cccc(OCc4c(C)noc4C)c3)ccc2OC)cc1 as the compound, how does the AC40 read?
The AC40 was 2.57 µM.

How did the AC40 turn out when COc1cccc(-c2ccc3c(c2)[C@H]2[C@H](CCN2S(=O)(=O)c2ccccc2C)[C@@H](CO)N3)c1 was run?
The AC40 was 14.3 µM.

Which AC40 does the source give for C[C@H]1CN([C@@H](C)CO)C(=O)c2cccc(NC(=O)c3ccncc3)c2O[C@@H]1CN(C)CC1CCCCC1 here?
Its AC40 is 7.44 µM.

How did the AC40 turn out when COc1ccc(NS(=O)(=O)c2ccc3ccccc3c2)c2ncccc12 was run?
Its AC40 is 5.19 µM.

How did the AC40 turn out when Cc1cc(C)c(S(=O)(=O)N2CCN=C2c2ccccc2)cc1C was run?
The AC40 was 10.3 µM.

With CN(C)c1ccc(C(=O)c2ccc(N(C)C)c3ccccc23)cc1 as the compound, how does the AC40 read?
The AC40 was 4.07 µM.

With O=C(NC(=S)Nc1ccc(S(=O)(=O)NC2CCCCC2)cc1)c1cccs1 as the compound, how does the AC40 read?
Its AC40 is 0.715 µM.

For COc1ccc(NS(=O)(=O)c2cc(NC(=O)c3ccc(=O)[nH]c3)ccc2N2CCCC2)cc1, which AC40 is on record?
Its AC40 is 0.424 µM.

For COc1ccc(N(CC(=O)Nc2cc(C)on2)S(=O)(=O)c2cc(C)ccc2C)cc1, which AC40 is on record?
The AC40 was 5.67 µM.

With O=S(=O)(Nc1ccccc1)c1ccc(Oc2ncc(C(F)(F)F)cc2Cl)cc1 as the compound, how does the AC40 read?
Its AC40 is 21.6 µM.

Which AC40 does the source give for Cc1ccc(C)c(NS(=O)(=O)c2cc(C(=O)NCc3ccco3)ccc2C)c1 here?
The AC40 was 7.68 µM.

With COc1ccc(NS(=O)(=O)c2cc(NC(=O)[C@@H](NC(=O)c3ccccc3)C(C)C)ccc2C)cc1 as the compound, how does the AC40 read?
Its AC40 is 2.3 µM.

COc1cc(S(=O)(=O)NC2CCCCC2)ccc1Cl was tested. Which AC40 did it give?
Its AC40 is 2.18 µM.

With COc1cc(C)c(C(C)C)cc1S(=O)(=O)N1CCN(C)CC1 as the compound, how does the AC40 read?
The AC40 was 7.96 µM.

COc1ccc(NS(=O)(=O)c2cc(C)ccc2NC(=O)c2cc(C)oc2C)cc1 was tested. Which AC40 did it give?
The AC40 was 3.23 µM.

With COc1ccc(S(=O)(=O)NCc2ccccc2)cc1Br as the compound, how does the AC40 read?
Its AC40 is 5.07 µM.

Which AC40 does the source give for CN1CC(c2ccccc2Cl)C2(COc3ccccc3C2=O)C12C(=O)Nc1ccccc12 (configuration not stated) here?
The AC40 was 2.2 µM.

Which AC40 does the source give for COc1ccc(S(=O)(=O)NC2CCCCC2)cc1C here?
Its AC40 is 3.14 µM.

COc1cc(S(=O)(=O)NC2CCCC2)c(OC)cc1Cl was tested. Which AC40 did it give?
Its AC40 is 2.6 µM.

With CCOCC(=O)Nc1c(C(=O)N2CCN(c3ncccn3)CC2)oc2ccccc12 as the compound, how does the AC40 read?
Its AC40 is 0.431 µM.

For COc1cccc(CN(C(=O)Cc2c[nH]c3ccccc23)C(C(=O)NC2CCCCC2)c2cccs2)c1 (configuration not stated), which AC40 is on record?
The AC40 was 6.05 µM.

Which AC40 does the source give for Cc1ccc(CN2CCSc3ccc(C(=O)NCc4ccco4)cc32)cc1 here?
The AC40 was 11.3 µM.

Which AC40 does the source give for Cc1ccc(NS(=O)(=O)c2ccc3c(c2)n(C)c(=O)n3C)cc1C here?
The AC40 was 3.8 µM.

For Cc1ccc(C)c(S(=O)(=O)Nc2ccc3scnc3c2)c1, which AC40 is on record?
The AC40 was 0.899 µM.

Which AC40 does the source give for Cc1cc(C(C)(C)C)cc(S(=O)(=O)NCCO)c1C here?
Its AC40 is 1.16 µM.

How did the AC40 turn out when COc1cccc(C(O)c2ncc(-c3cccc(F)c3)[nH]2)c1 (configuration not stated) was run?
The AC40 was 17.3 µM.

How did the AC40 turn out when CCOC(=O)c1ccc(NS(=O)(=O)c2cc(C)ccc2OC)cc1 was run?
The AC40 was 8.03 µM.

How did the AC40 turn out when CC(=Nc1ccccc1)C1=C(O)C(Cc2cccc(F)c2)NC1=O (configuration not stated) was run?
The AC40 was 3.86 µM.

For COC(=O)C1CC23C=CCN4CCC5(c6ccccc6NC15C2C)C43 (configuration not stated), which AC40 is on record?
The AC40 was 20.1 µM.

How did the AC40 turn out when CCN(CC)S(=O)(=O)c1cc(C(=O)N(C)CC(=O)Nc2ccc(Cl)cc2)ccc1Cl was run?
Its AC40 is 13.9 µM.

With Cc1cc(S(=O)(=O)N(Cc2ccccc2F)C2CC2)ccc1-n1cnnn1 as the compound, how does the AC40 read?
Its AC40 is 1.94 µM.

C[C@@H]1CN([C@H](C)CO)C(=O)c2cccc(NC(=O)C3CCCCC3)c2O[C@@H]1CN(C)Cc1ccc(C(=O)Nc2ccccc2N)cc1 was tested. Which AC40 did it give?
Its AC40 is 6.1 µM.

For C[C@H](CO)N1C[C@H](C)[C@@H](CN(C)Cc2ccc3c(c2)OCO3)Oc2c(NC(=O)NC3CCCCC3)cccc2C1=O, which AC40 is on record?
Its AC40 is 2.53 µM.

With Cc1cc(-c2ccc(C(C)C)c(S(=O)(=O)NCc3ccco3)c2)on1 as the compound, how does the AC40 read?
The AC40 was 1.22 µM.

CN1C(=O)c2cc(NC(=O)NCc3ccccc3)ccc2OC[C@@H]2O[C@@H](CC(=O)NCC3CCCCC3)CC[C@@H]21 was tested. Which AC40 did it give?
The AC40 was 3.21 µM.

With COc1ccc(C)cc1S(=O)(=O)NCCC1=CCCCC1 as the compound, how does the AC40 read?
Its AC40 is 0.465 µM.

With C=CCNC(=O)c1ccccc1NC(=O)c1ccc(Cl)c(S(=O)(=O)Nc2cc(C)ccc2C)c1 as the compound, how does the AC40 read?
Its AC40 is 1.38 µM.

How did the AC40 turn out when COc1ccc(C(=O)N2C[C@@H]3[C@H](c4ccccc42)[C@H](CO)N3Cc2ccc3c(c2)OCO3)cc1 was run?
The AC40 was 5.57 µM.

Which AC40 does the source give for CCCC#Cc1ccc2c(c1)O[C@H](CN(C)C(=O)c1ccccn1)[C@@H](C)CN([C@H](C)CO)S2(=O)=O here?
Its AC40 is 11.3 µM.

For CCCCCCNS(=O)(=O)c1ccc(Cl)s1, which AC40 is on record?
The AC40 was 13.9 µM.

Cn1cc(CC(=O)Nc2cccc(C#N)c2)c2ccccc21 was tested. Which AC40 did it give?
The AC40 was 3.57 µM.

C[C@H]1CN([C@@H](C)CO)C(=O)c2cccc(NC(=O)C3CCOCC3)c2O[C@@H]1CN(C)Cc1ccc(C(F)(F)F)cc1 was tested. Which AC40 did it give?
Its AC40 is 1.51 µM.

With Cc1ccc(NC(=O)C(OC(=O)c2ccc(F)cc2)c2ccccc2)cc1Cl (configuration not stated) as the compound, how does the AC40 read?
The AC40 was 2.85 µM.

How did the AC40 turn out when OC(c1ccc(F)cc1)c1ncc(-c2ccccc2F)[nH]1 (configuration not stated) was run?
Its AC40 is 5.16 µM.

Which AC40 does the source give for CC(C)CNS(=O)(=O)c1ccc(OCC(=O)Nc2ccc3c(c2)OCO3)c(Cl)c1 here?
The AC40 was 8.36 µM.

Which AC40 does the source give for Cc1ccc(-c2ccc3c(c2)O[C@H](CN(C)Cc2ccc(F)cc2)[C@@H](C)CN([C@H](C)CO)S3(=O)=O)cc1 here?
Its AC40 is 5.46 µM.

How did the AC40 turn out when C[C@H](CO)N1C[C@H](C)[C@@H](CN(C)Cc2ccc(Cl)c(Cl)c2)Oc2c(NS(=O)(=O)c3ccccc3)cccc2C1=O was run?
The AC40 was 2.54 µM.

With O=C(Nc1ccc(S(=O)(=O)NCCc2ccccc2)cc1)c1ccc(Br)o1 as the compound, how does the AC40 read?
The AC40 was 0.54 µM.

With COc1ccccc1CNC(=O)C[C@@H]1CC[C@H]2[C@H](COc3ccc(NC(C)=O)cc3C(=O)N2C)O1 as the compound, how does the AC40 read?
Its AC40 is 22 µM.

With COc1ccc(C)cc1S(=O)(=O)NC1CCCCC1 as the compound, how does the AC40 read?
The AC40 was 1.31 µM.

For O=S(=O)(NCCC1=CCCCC1)c1ccccc1Br, which AC40 is on record?
The AC40 was 2.03 µM.

Which AC40 does the source give for COc1ccc(NS(=O)(=O)c2cc3c(cc2C)N(C)CCO3)c(OC)c1 here?
Its AC40 is 1.81 µM.
